Values joined by “and” are separate entries in the source; they are usually repeats but may differ in a detail not shown here. Equal values may be shown once. Read-outs that look alike come from different tables or passages of the source.
Experiments:
[1] = tested on: Botrytis cinerea; experiment: PDA plate inhibition, caprylic acid and organic acids (Example 13); assay type: cell-based
Method: (§1) Potato dextrose agar (PDA) plates, +/−amendments, were inoculated with selected pathogens. There were several replicate plates used per treatment group (per pathogen tested). After incubation of plates at room temperature, fungal growth was measured.

[2] = tested on: White mold; experiment: as above; assay type: cell-based
Method: as §1

[3] = tested on: Botrytis cinerea
[4] = tested on: Septoria; assay type: cell-based
[5] = tested on: Late blight; assay type: cell-based
[6] = tested on: White mold; assay type: cell-based

CCNCC.O=C(O)c1ccccc1O [0.010% diethylamine salicylate, diethylamine salicylate]
Inhibition (%) of Botrytis cinerea [1]: 0% | Inhibition (%) of white mold [2]: 7%

O=C(O)C(O)C(O)C(=O)O (centres unmarked) [0.75% tartaric acid, tartaric acid]
Infected berries (% of total) ([3]; Day 2 after treatment): 31% | Infected berries (% of total) ([3]; Day 3 after treatment): 58%

O=C(O)CO [0.0175% glycolic acid, glycolic acid]
Measurement of fungal growth, based on control plate (100%) [4]: 80% and 90% | Measurement of fungal growth, based on control plate (100%) ([5]; Day 2 after inoculum): 79% | Measurement of fungal growth, based on control plate (100%) ([5]; Day 3 after inoculum): 104% | Measurement of fungal growth, based on control plate (100%) [6]: 127% and 108%
